The text below walks through data of patent US11000033B2, “Ketone or oxime compound, and herbicide” (NISSAN CHEMICAL CORPORATION, priority 2014, dated 2021).

Holding throughout (type): in vivo
One series has as its system beet. Nature of the series: Test Example 4: effect on crop by soil treatment (symbol f). The settings on record: application herbicide amount 320 g/ha. In a few lines:
(§1)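 Soil-treatment setup: crop and weed seeds were spot-sown into sterilized diluvial soil, then buried beneath approximately 1.5 cm of it, and the boxes were housed in a 25–30° C. greenhouse.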

For series [1], the system named is Monochoria vaginalis. Nature of the series: Test Example 2: herbicidal activity, application during weed generation in submerged conditions (symbol C). The following applies: Table 23; application herbicide amount 320 g/ha; grade 0-5 by criteria of Test Example 1. In a few lines:
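Visual herbicidal ratings, taken three weeks after dosing, reflect post-emergence water-surface application to seedlings at one to two leaves. Conditions: co-sown weeds in alluvial soil flooded to 4 cm, greenhouse held at 25° C. to 30° C.; compound given as water-diluted emulsion at a fixed herbicide amount.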

A further series has as its system Setaria viridis. Nature of the series: Test Example 5: herbicidal effect by foliage application, plastic box (symbol G). The following applies: 320 g/ha, 3 weeks after application. The essentials:
(§2)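 Herbicide, formulated as an emulsion and diluted in water, is sprayed onto the aerial parts of 14-day seedlings. These were grown at 25° C. to 30° C. in sterilized diluvial soil; effects are graded after 3 weeks.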

In series [2] the test system is Echinochloa crus-galli var. crus-galli. Nature of the series: Test Example 5: herbicidal effect by foliage application, plastic box (symbol H). The settings on record: 320 g/ha, 3 weeks after application. The essentials: as §2
Another series relates to corn. The series is described as follows: Test Example 5: effect on crop by foliage application, plastic box (symbol c). The settings on record: 320 g/ha, 3 weeks after application. The essentials:
(§3)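 Soil: sterilized diluvial. Container: plastic box, 21 × 13 cm, 7 cm deep. Sowing: spot-like, ~1.5 cm cover. Growth: greenhouse, 25° C. to 30° C.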

The test system of another series is soybean. Nature of the series: Test Example 4: effect on crop by soil treatment (symbol d). The settings on record: application herbicide amount 320 g/ha. In a few lines: as §1
Series [3] deals with Apera spica-venti. The series is described as follows: Test Example 4: herbicidal effect by soil treatment (symbol L). The settings on record: application herbicide amount 320 g/ha. The essentials:
(§4)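 Seeds were sown in sterilized diluvial soil, covered with about 1.5 cm of soil, and the soil surface was sprayed with a water-diluted emulsion of the compound at a predetermined rate. Plants grew in a greenhouse at 25° C. to 30° C.; effects were scored visually 3 weeks after application.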

Series [4] deals with Apera spica-venti. The series is described as follows: Test Example 5: herbicidal effect by foliage application, plastic box (symbol L). The settings on record: 320 g/ha, 3 weeks after application. In a few lines: as §2
For a further series, the system named is rice. Nature of the series: Test Example 4: effect on crop by soil treatment (symbol b). The settings on record: application herbicide amount 320 g/ha. In a few lines: as §1
The subject of a further series is rapeseed. The series is described as follows: Test Example 5: effect on crop by foliage application, plastic box (symbol g). The settings on record: 320 g/ha, 3 weeks after application. In a few lines:
as §3

In series [5] the test system is Avena fatua. The series is described as follows: Test Example 5: herbicidal effect by foliage application, plastic box (symbol I). The settings on record: 320 g/ha, 3 weeks after application. In a few lines: as §2
Series [6] deals with Monochoria vaginalis. The series is described as follows: Test Example 1: herbicidal activity, application before weed generation in submerged conditions (symbol C). The following applies: application herbicide amount 320 g/ha. In a few lines: (§5)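 Mixed weed seeds sown in alluvial soil under 4 cm of water, with rice seedlings at the 2.5-leaf stage added. Same-day treatment: emulsion diluted to a set herbicide amount onto the water. Three weeks at 25–30 °C, then graded on a six-step scale.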

In series [7] the test system is Echinochloa oryzacola Vasing. Nature of the series: Test Example 1: herbicidal activity, application before weed generation in submerged conditions (symbol A). The following applies: application herbicide amount 320 g/ha. The essentials: as §5
Series [8] has as its system Avena fatua. Nature of the series: Test Example 4: herbicidal effect by soil treatment (symbol I). The following applies: application herbicide amount 320 g/ha. In a few lines:
as §4

Series [9] deals with Echinochloa crus-galli var. crus-galli. The series is described as follows: Test Example 4: herbicidal effect by soil treatment (symbol H). The settings on record: application herbicide amount 320 g/ha. The essentials: as §4
In the next series the test system is Abutilon theophrasti. The series is described as follows: Test Example 4: herbicidal effect by soil treatment (symbol M). The settings on record: application herbicide amount 320 g/ha. In a few lines:
as §4

For the molecule `CON=C(C)CC1CC(O)=C(c2c(C)cc(-n3cccn3)cc2C)C1=O` (stereo not shown) [6-073], the “f: beet, effect on crop grade” value in the series on beet was 0 (Herbicidal ratio of 5% or lower (almost no effect)). Besides, the “Herbicidal effect grade, C: Monochoria vaginalis” value (“Herbicidal effect grade, C” below) is 1 (Herbicidal ratio of 5% or higher and lower than 20%) in the series on Monochoria vaginalis [1]; 1 (Herbicidal ratio of 5% or higher and lower than 20%) in the series with Monochoria vaginalis [6]. For the same molecule, in the series on Setaria viridis, the “G: Setaria viridis, herbicidal effect (criteria of Test Example 1)” value (shortened to “G: Setaria viridis, herbicidal effect”) is given as 5 (Herbicidal ratio of 90% or more (almost completely withered)). In addition, the “H: Echinochloa crus-galli var. crus-galli, herbicidal effect (criteria of Test Example 1)” value in series [2] is on record as 5 (Herbicidal ratio of 90% or more (almost completely withered)). Moreover, the “c: corn, effect on crop (criteria of Test Example 1)” value (shortened to “c: corn, effect on crop”) in the series with corn was 4 (Herbicidal ratio of 70% or higher and lower than 90%). Also, in the series with soybean, the “d: soybean, effect on crop grade” value is 0 (Herbicidal ratio of 5% or lower (almost no effect)). In addition, in the series with Apera spica-venti [3], the “L: Apera spica-venti, herbicidal effect grade” value is 0 (Herbicidal ratio of 5% or lower (almost no effect)). For the same molecule, the “L: Apera spica-venti, herbicidal effect (criteria of Test Example 1)” value in the series on Apera spica-venti [4] is 3 (Herbicidal ratio of 40% or higher and lower than 70%). Further, in the series on rice, the “b: directly sowed rice plant, effect on crop grade” value was 5 (Herbicidal ratio of 90% or more (almost completely withered)). Moreover, the “g: rapeseed, effect on crop (criteria of Test Example 1)” value (“g: rapeseed, effect on crop” for short) in the series with rapeseed was 4 (Herbicidal ratio of 70% or higher and lower than 90%). In addition, in the series with Avena fatua [5], the “I: Avena fatua, herbicidal effect (criteria of Test Example 1)” value is recorded as 5 (Herbicidal ratio of 90% or more (almost completely withered)). For the same molecule, the “Herbicidal effect grade, A: Echinochloa oryzacola Vasing.” value in [7] is 4 (Herbicidal ratio of 70% or higher and lower than 90%). For the same molecule, in the series with Avena fatua [8], the “I: Avena fatua, herbicidal effect grade” value is 3 (Herbicidal ratio of 40% or higher and lower than 70%). For the same molecule, the “H: Echinochloa crus-galli var. crus-galli, herbicidal effect grade” value in [9] is 5 (Herbicidal ratio of 90% or more (almost completely withered)). For the same molecule, the “M: Abutilon theophrasti, herbicidal effect grade” value in the series on Abutilon theophrasti was 0 (Herbicidal ratio of 5% or lower (almost no effect)).
Turning to `COc1cc(C)c(C2=C(O)CC(CC(C)=O)C2=O)c(C)c1` (stereo not shown) [7-020], in the series on beet, the “Effect on crop grade, f: beet” value is listed as 0 (Herbicidal ratio of 5% or lower (almost no effect)). Besides, the “Herbicidal effect grade, C” value in the series with Monochoria vaginalis [1] and in the series on Monochoria vaginalis [6] was 0 (Herbicidal ratio of 5% or lower (almost no effect)) each time. In the series on Setaria viridis, the “G: Setaria viridis, herbicidal effect” value was 3 (Herbicidal ratio of 40% or higher and lower than 70%). Besides, in series [2], the “H: Echinochloa crus-galli var. crus-galli, herbicidal effect (criteria of Test Example 1)” value was 4 (Herbicidal ratio of 70% or higher and lower than 90%). Further, the “c: corn, effect on crop” value in the series on corn is on record as 0 (Herbicidal ratio of 5% or lower (almost no effect)). Moreover, the “Effect on crop grade, d: soybean” value with soybean is 0 (Herbicidal ratio of 5% or lower (almost no effect)). Also, the “Herbicidal effect grade, L: Apera spica-venti” value in the series on Apera spica-venti [3] was 0 (Herbicidal ratio of 5% or lower (almost no effect)). The “L: Apera spica-venti, herbicidal effect (criteria of Test Example 1)” value in the series on Apera spica-venti [4] is 3 (Herbicidal ratio of 40% or higher and lower than 70%). Further, in the series with rice, the “Effect on crop grade, b: directly sowed rice plant” value was 5 (Herbicidal ratio of 90% or more (almost completely withered)). For the same molecule, the “g: rapeseed, effect on crop” value with rapeseed was 2 (Herbicidal ratio of 20% or higher and lower than 40%). The “I: Avena fatua, herbicidal effect (criteria of Test Example 1)” value in the series on Avena fatua [5] is on record as 0 (Herbicidal ratio of 5% or lower (almost no effect)). In series [7], the “Herbicidal effect grade, A: Echinochloa oryzacola Vasing.” value is 2 (Herbicidal ratio of 20% or higher and lower than 40%). In the series with Avena fatua [8], the “Herbicidal effect grade, I: Avena fatua” value is reported as 0 (Herbicidal ratio of 5% or lower (almost no effect)). Moreover, the “Herbicidal effect grade, H: Echinochloa crus-galli var. crus-galli” value in [9] is reported as 0 (Herbicidal ratio of 5% or lower (almost no effect)). In addition, the “Herbicidal effect grade, M: Abutilon theophrasti” value in the series with Abutilon theophrasti is 0 (Herbicidal ratio of 5% or lower (almost no effect)).
For the molecule `CON=C(C)CC1CC(OC(=O)N(C)C)=C(c2c(C)cc(-c3ccc(Cl)cc3)cc2C)C1=O` (mixture of isomers) [6-063], in the series on beet, the “f: beet, effect on crop grade” value is listed as 0 (Herbicidal ratio of 5% or lower (almost no effect)). The “Herbicidal effect grade, C” value in the series with Monochoria vaginalis [1] is 2 (Herbicidal ratio of 20% or higher and lower than 40%); in the series on Monochoria vaginalis [6], 3 (Herbicidal ratio of 40% or higher and lower than 70%). The “G: Setaria viridis, herbicidal effect” value in the series on Setaria viridis is given as 5 (Herbicidal ratio of 90% or more (almost completely withered)). Moreover, the “H: Echinochloa crus-galli var. crus-galli, herbicidal effect (criteria of Test Example 1)” value in [2] is reported as 5 (Herbicidal ratio of 90% or more (almost completely withered)). Besides, in the series with corn, the “c: corn, effect on crop” value is given as 5 (Herbicidal ratio of 90% or more (almost completely withered)). The “d: soybean, effect on crop grade” value in the series with soybean is recorded as 0 (Herbicidal ratio of 5% or lower (almost no effect)). Further, the “L: Apera spica-venti, herbicidal effect grade” value in the series with Apera spica-venti [3] was 5 (Herbicidal ratio of 90% or more (almost completely withered)). For the same molecule, in the series on Apera spica-venti [4], the “L: Apera spica-venti, herbicidal effect (criteria of Test Example 1)” value was 5 (Herbicidal ratio of 90% or more (almost completely withered)). In the series with rice, the “b: directly sowed rice plant, effect on crop grade” value was 0 (Herbicidal ratio of 5% or lower (almost no effect)). Moreover, the “g: rapeseed, effect on crop” value in the series with rapeseed was 4 (Herbicidal ratio of 70% or higher and lower than 90%). In addition, the “I: Avena fatua, herbicidal effect (criteria of Test Example 1)” value in the series with Avena fatua [5] is 5 (Herbicidal ratio of 90% or more (almost completely withered)). Moreover, in [7], the “Herbicidal effect grade, A: Echinochloa oryzacola Vasing.” value is 5 (Herbicidal ratio of 90% or more (almost completely withered)). Also, the “I: Avena fatua, herbicidal effect grade” value in the series with Avena fatua [8] is listed as 0 (Herbicidal ratio of 5% or lower (almost no effect)). Further, in [9], the “H: Echinochloa crus-galli var. crus-galli, herbicidal effect grade” value is listed as 0 (Herbicidal ratio of 5% or lower (almost no effect)). Also, the “M: Abutilon theophrasti, herbicidal effect grade” value in the series on Abutilon theophrasti is recorded as 0 (Herbicidal ratio of 5% or lower (almost no effect)).
For the molecule `CON=C(C)CC1CC(O)=C(c2c(C)cc(Br)cc2OC)C1=O` (stereo not shown) [6-076, 2-(4-bromo-2-methoxy-6-methylphenyl)-3-hydroxy-5-{2-(methoxyimino)propyl}cyclopent-2-enone], the “f: beet, effect on crop grade” value in the series on beet was 0 (Herbicidal ratio of 5% or lower (almost no effect)). Moreover, the “Herbicidal effect grade, C” value in the series with Monochoria vaginalis [1] is 1 (Herbicidal ratio of 5% or higher and lower than 20%); with Monochoria vaginalis [6] it was 2 (Herbicidal ratio of 20% or higher and lower than 40%). In addition, the “G: Setaria viridis, herbicidal effect” value in the series on Setaria viridis is reported as 5 (Herbicidal ratio of 90% or more (almost completely withered)). Moreover, the “H: Echinochloa crus-galli var. crus-galli, herbicidal effect (criteria of Test Example 1)” value in [2] was 5 (Herbicidal ratio of 90% or more (almost completely withered)). Moreover, in the series on corn, the “c: corn, effect on crop” value is 5 (Herbicidal ratio of 90% or more (almost completely withered)). For the same molecule, the “d: soybean, effect on crop grade” value in the series on soybean is reported as 0 (Herbicidal ratio of 5% or lower (almost no effect)). For the same molecule, the “L: Apera spica-venti, herbicidal effect grade” value with Apera spica-venti [3] is recorded as 5 (Herbicidal ratio of 90% or more (almost completely withered)). For the same molecule, in the series on Apera spica-venti [4], the “L: Apera spica-venti, herbicidal effect (criteria of Test Example 1)” value is 5 (Herbicidal ratio of 90% or more (almost completely withered)). The “b: directly sowed rice plant, effect on crop grade” value in the series on rice is reported as 5 (Herbicidal ratio of 90% or more (almost completely withered)). Besides, the “g: rapeseed, effect on crop” value with rapeseed was 4 (Herbicidal ratio of 70% or higher and lower than 90%). Further, the “I: Avena fatua, herbicidal effect (criteria of Test Example 1)” value in the series with Avena fatua [5] is on record as 5 (Herbicidal ratio of 90% or more (almost completely withered)). Moreover, the “Herbicidal effect grade, A: Echinochloa oryzacola Vasing.” value in series [7] is given as 5 (Herbicidal ratio of 90% or more (almost completely withered)). The “I: Avena fatua, herbicidal effect grade” value with Avena fatua [8] was 3 (Herbicidal ratio of 40% or higher and lower than 70%). In addition, the “H: Echinochloa crus-galli var. crus-galli, herbicidal effect grade” value in series [9] is recorded as 5 (Herbicidal ratio of 90% or more (almost completely withered)). Further, the “M: Abutilon theophrasti, herbicidal effect grade” value with Abutilon theophrasti was 5 (Herbicidal ratio of 90% or more (almost completely withered)).
